# Target: T1, recombinant human GST-SYK (Homo sapiens, UniProt P43405)
# T1 construct: purchased Carna Biosciences 08-176
# Test: Homogeneous Time-Resolved Fluorescence (HTRF) assay for the recombinant human Syk enzyme
# Format: biochemical
# Conditions: GST-hSYK 5 pM, ATP 25 μM, 10-dose titration 10 μM to 0.508 nM; read-out: IC50
# Procedure, shortened: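 GST-hSYK fusion phosphorylates a peptide for 45 min at room temperature. Quenched with EDTA buffer containing 2 nM Eu-anti-phosphotyrosine antibody and 70 nM SA-APC. HTRF signal read after 30 min.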
row,IC50,SMILES
1,7.8 nM,"Cc1cc(C)nc(Nc2cc(N[C@@H](CC(C)C)C(N)=O)cnc2C(N)=O)c1 [Example 1.46, N^2-{6-carbamoyl-5-[(4,6-dimethylpyridin-2-yl)amino]pyridin-3-yl}- -leucinamide]"
2,120 nM,"CCC(CN)Nc1cnc(C(N)=O)c(Nc2ccn(C)n2)c1 (stereo not drawn) [Example 1.95, 5-{[1-(aminomethyl)propyl]amino}-3-[(1-methyl-1H-pyrazol-3-yl)amino]pyridine-2-carboxamide]"
3,55 nM,"Cc1cc(C)nc(Nc2cc(N[C@H]3CC[C@@H]3N)cnc2C(N)=O)c1 (relative stereo) [Example 1.116, rel-5-{[(1S,2S)-2-aminocyclobutyl]amino}-3-[(4,6-dimethylpyridin-2-yl)amino]pyridine-2-carboxamide]"

# Same assay, conditions: GST-hSYK 5 pM, ATP 25 μM, 10-dose titration 10 μM to 0.508 nM; read-out: rhSYK Activity (IC50 rating)
row,SMILES,IC50
1,"NCCNc1cnc(C(N)=O)c(Nc2cccc(-n3nccn3)n2)c1 [Example 1.58, 5-[(2-aminoethyl)amino]-3-{[6-(2H-1,2,3-triazol-2-yl)pyridin-2-yl]amino}pyridine-2-carboxamide]",< 10 nM
2,"CCn1ccc(Nc2cc(N[C@@H]3CCCC[C@@H]3N)cnc2C(N)=O)n1 [Example 1.49, 5-{[(1R,2S)-2-aminocyclohexyl]amino}-3-[(1-ethyl-1H-pyrazol-3-yl)amino]pyridine-2-carboxamide]",10 to 100 nM
3,"NC(=O)c1ncc(N[C@@H]2CCCC[C@@H]2N)cc1Nc1cccc(-c2ccc3c(c2)CCO3)n1 [Example 1.15, 5-{[(1R,2S)-2-aminocyclohexyl]amino}-3-{[6-(2,3-dihydro-1-benzofuran-5-yl)pyridin-2-yl]amino}pyridine-2-carboxamide]",< 10 nM
4,"Cc1nc(Nc2cc(N[C@@H]3CCCC[C@@H]3N)cnc2C(N)=O)ccc1F [Example 1.24, 5-{[(1R,2S)-2-aminocyclohexyl]amino}-3-[(5-fluoro-6-methylpyridin-2-yl)amino]pyridine-2-carboxamide]",< 10 nM
5,"COC[C@H](N)CNc1cnc(C(N)=O)c(Nc2ccn(C)n2)c1 [Example 1.98, 5-{[(2R)-2-amino-3-methoxypropyl]amino}-3-[(1-methyl-1H-pyrazol-3-yl)amino]pyridine-2-carboxamide]",100 to 1000 nM
6,"Cc1cc(-n2ccnn2)cc(Nc2cc(N[C@@H]3CCCC[C@@H]3N)cnc2C(N)=O)n1 [Example 1.75, 5-{[(1R,2S)-2-aminocyclohexyl]amino}-3-{[6-methyl-4-(1H-1,2,3-triazol-1-yl)pyridin-2-yl]amino}pyridine-2-carboxamide]",< 10 nM
7,"Cc1cc(C)n2nc(Nc3cc(N[C@@H]4CCCC[C@@H]4N)cnc3C(N)=O)cc2n1 [Example 1.55, 5-{[(1R,2S)-2-aminocyclohexyl]amino}-3-[(5,7-dimethylpyrazolo[1,5-a]pyrimidin-2-yl)amino]pyridine-2-carboxamide]",< 10 nM
8,"Cc1cccc(-n2ccc(Nc3cc(N[C@@H]4CCCC[C@@H]4N)cnc3C(N)=O)n2)c1 [Example 1.80, 5-{[(1R,2S)-2-aminocyclohexyl]amino}-3-{[1-(3-methylphenyl)-1H-pyrazol-3-yl]amino}pyridine-2-carboxamide]",< 10 nM
9,"Cc1ccc(-n2ccc(Nc3cc(N[C@@H]4CCCC[C@@H]4N)cnc3C(N)=O)n2)cc1C [Example 1.66, 5-{[(1R,2S)-2-aminocyclohexyl]amino}-3-{[1-(3,4-dimethylphenyl)-1H-pyrazol-3-yl]amino}pyridine-2-carboxamide]",< 10 nM
10,"CCC(CN)Nc1cnc(C(N)=O)c(Nc2ccn(C)n2)c1 (stereo not drawn) [Example 1.95, 5-{[1-(aminomethyl)propyl]amino}-3-[(1-methyl-1H-pyrazol-3-yl)amino]pyridine-2-carboxamide]",100 to 1000 nM
11,"Cc1cc2ccsc2c(Nc2cc(N[C@@H]3CCCC[C@@H]3N)cnc2C(N)=O)n1 [Example 1.107, 5-{[(1R,2S)-2-aminocyclohexyl]amino}-3-[(5-methylthieno[2,3-c]pyridin-7-yl)amino]pyridine-2-carboxamide]",< 10 nM
12,"Cc1cc(C)nc(Nc2cc(N[C@@H](CC(C)C)C(N)=O)cnc2C(N)=O)c1 [Example 1.40, N^2-{6-carbamoyl-5-[(4,6-dimethylpyridin-2-yl)amino]pyridin-3-yl}leucinamide]",< 10 nM
13,"NC(=O)c1ncc(N[C@H]2[C@@H](N)CCCC2(F)F)cc1Nc1cccc(-n2nccn2)n1 [Example 1.83, 5-{[(1S,6S)-6-amino-2,2-difluorocyclohexyl]amino}-3-{[6-(2H-1,2,3-triazol-2-yl)pyridin-2-yl]amino}pyridine-2-carboxamide]",< 10 nM
14,"NC(=O)c1ncc(N[C@@H]2CCCC[C@@H]2N)cc1Nc1cc(Cl)cc(Cl)n1 [Example 1.73, 5-{[(1R,2S)-2-aminocyclohexyl]amino}-3-[(4,6-dichloropyridin-2-yl)amino]pyridine-2-carboxamide]",< 10 nM
15,"Cc1cc(C)nc(Nc2cc(N[C@@H]3CCC[C@@H]3N)cnc2C(N)=O)c1 (relative stereo) [Example 1.18, rel-5-{[(1R,2S)-2-aminocyclopentyl]amino}-3-[(4,6-dimethylpyridin-2-yl)amino]pyridine-2-carboxamide]",< 10 nM

# Now from value to molecule:
row,IC50,SMILES
1,10 to 100 nM,"Cc1cc(C)nc(Nc2cc(NCCCN)cnc2C(N)=O)c1 [Example 14, 5-[(3-aminopropyl)amino]-3-[(4,6-dimethylpyridin-2-yl)amino]pyridine-2-carboxamide]"
2,10 to 100 nM,"Cc1cc(C(=O)O)cc(Nc2cc(N[C@@H]3CCCC[C@@H]3N)cnc2C(N)=O)n1 [Example 12, 2-[(5-{[(1R,2S)-2-aminocyclohexyl]amino}-2-carbamoylpyridin-3-yl)amino]-6-methylpyridine-4-carboxylic acid]"
3,< 10 nM,"Cc1nc(Nc2cc(N[C@@H]3CCCC[C@@H]3N)cnc2C(N)=O)ccc1-c1cccc(C(O)C(F)(F)F)c1 (stereo partly drawn) [Example 3.11, 5-{[(1R,2S)-2-aminocyclohexyl]amino}-3-({6-methyl-5-[3-(2,2,2-trifluoro-1-hydroxyethyl)phenyl]pyridin-2-yl}amino)pyridine-2-carboxamide]"
4,< 10 nM,"Cc1nc(Nc2cc(N[C@@H]3CCCC[C@@H]3N)cnc2C(N)=O)ccc1-c1cccc(C(=O)O)c1 [Example 3.6, 3-{6-[(5-{[(1R,2S)-2-aminocyclohexyl]amino}-2-carbamoylpyridin-3-yl)amino]-2-methylpyridin-3-yl}benzoic acid]"
5,< 10 nM,"Cc1nc(Nc2cc(N[C@@H]3CCCC[C@@H]3N)cnc2C(N)=O)ccc1-c1ccc2c(cnn2C)c1 [Example 3.18, 5-{[(1R,2S)-2-aminocyclohexyl]amino}-3-{[6-methyl-5-(1-methyl-1H-indazol-5-yl)pyridin-2-yl]amino}pyridine-2-carboxamide]"
6,10 to 100 nM,"Cc1cc(C)nc(Nc2cc(N[C@H]3CC[C@@H]3N)cnc2C(N)=O)c1 (relative stereo) [Example 1.116, rel-5-{[(1S,2S)-2-aminocyclobutyl]amino}-3-[(4,6-dimethylpyridin-2-yl)amino]pyridine-2-carboxamide]"
7,< 10 nM,"Cc1nc(Nc2cc(N[C@@H]3CCCC[C@@H]3N)cnc2C(N)=O)ccc1-c1ccc2c(c1)C(=O)NC2 [Example 3.16, 5-{[(1R,2S)-2-aminocyclohexyl]amino}-3-{[6-methyl-5-(3-oxo-2,3-dihydro-1H-isoindol-5-yl)pyridin-2-yl]amino}pyridine-2-carboxamide]"
8,< 10 nM,"Cc1nc(Nc2cc(N[C@@H]3CCCC[C@@H]3N)cnc2C(N)=O)ccc1-c1cccc(C(O)C(F)F)c1 (stereo partly drawn) [Example 3.1, 5-{[(1R,2S)-2-aminocyclohexyl]amino}-3-({5-[3-(2,2-difluoro-1-hydroxyethyl)phenyl]-6-methylpyridin-2-yl}amino)pyridine-2-carboxamide]"
9,100 to 1000 nM,"Cc1cc(C)nc(Nc2cc(NC(=O)CN)cnc2C(N)=O)c1 [Example 10, 3-[(4,6-dimethylpyridin-2-yl)amino]-5-(glycylamino)pyridine-2-carboxamide]"

# — patent US9216173B2, “2-Pyridyl carboxamide-containing spleen tyrosine kinase (SYK) inhibitors” (Merck Sharp & Dohme Corp., priority 2011, dated 2015)
